How the values were obtained:
BACE2 = BACE2 (Homo sapiens (Human), UniProt Q9Y5Z0); assay: Immunofluorescence Resonance Energy Transfer (FRET) assay for BACE2 inhibition; type: biochemical; conditions: TMEM27-based peptide substrate 5 μM, pH 4.5
Procedure: Immunofluorescence Resonance Energy Transfer (FRET) Assay for BACE2 Inhibition:
BACE2 enzyme ectodomain (derived from plasmid “pET17b-T7-hu proBACE2”) was prepared as described in Ostermann et al., “Crystal Structure of Human BACE2 in Complex with a Hydroxyethylamine Transition-state Inhibitor”, Journal of Molecular Biology 2006, 355, 249-261. The pro-enzyme was stored at 4° C. at a concentration of 70 μg/ml.
The FRET assay was performed essentially as described in Grüninger-Leitch et al., Journal of Biological Chemistry (2002) 277(7) 4687-93 (“Substrate and inhibitor profile of BACE (beta-secretase) and comparison with other mammalian aspartic proteases”). In summary, a peptide is designed that is cleaved by the protease. The peptide is labelled with dabcyl at the N terminus and Lucifer Yellow at the C-terminus, such that for an intact peptide the Lucifer Yellow fluorescence is quenched by the dabcyl. When the peptide is cut by BACE2, the quenching is removed and a fluorescent signal is generated.
The assay was performed as described in Grueninger et al. 2002 at pH 4.5 using a substrate concentration of 5 μM. A FRET peptide based on the TMEM27 sequence was devised. dabcyl-[…]-LucY (SEQ ID NO: 1).
The assay readout is the initial rate of change of fluorescence intensity giving a relative measure of BACE2 activity. Small values correspond to high inhibition and larger values to low inhibition. […] IC50 values were determined using these assay values generated for a range of inhibitor concentrations and the curve fitting software XLfit (IDBS) using the Sigmoidal Dose-Response Model.

BACE1 = BACE1 (Homo sapiens (Human), UniProt P56817); assay: Cellular Aβ-lowering assay (Aβ40 ELISA in HEK293 cells expressing human APP695); type: cell-based; conditions: HEK293 cells stably transfected with human APP wt (APP695), Aβ40 in supernatant after 18-20 hrs
Procedure: Cellular Aβ-Lowering Assay:
Human HEK293 cells which are stably transfected with a vector expressing a cDNA of the human APP wt gene (APP695) were used to assess the potency of the compounds in a cellular assay. The cells were seeded in 96-well microtiter plates in cell culture medium (Iscove, plus 10% (v/v) fetal bovine serum, glutamine, penicillin/streptomycin) to about 80% confluence and the compounds were added at a 10× concentration in 1/10 volume of medium without FCS containing 8% DMSO (final concentration of DMSO was kept at 0.8% v/v). After 18-20 hrs incubation at 37° C. and 5% CO2 in a humidified incubator the culture supernatant was harvested for the determination of Aβ40 concentrations. 96 well ELISA plates (e.g., Nunc MaxiSorb) were coated with monoclonal antibody which specifically recognize the C-terminal end of Aβ40 (Brockhaus et al., NeuroReport 9, 1481-1486; 1998). After blocking of non-specific binding sites with e.g. 1% BSA and washing, the culture supernatants were added in suitable dilutions together with a horseradish peroxidase-coupled Aβ detection antibody (e.g., antibody 4G8, Senetek, Maryland Heights, Mo.) and incubated for 5 to 7 hrs. Subsequently the wells of the microtiter plate were washed extensively with Tris-buffered saline containing 0.05% Tween 20 and the assay was developed with tetramethylbenzidine/H2O2 in citric acid buffer. After stopping the reaction with one volume 1NH2SO4 the reaction was measured in an ELISA reader at 450 nm wavelength. The concentrations of Aβ in the culture supernatants were calculated from a standard curve obtained with known amounts of pure Aβ peptide.

Chain of BACE1 (P56817 46-501): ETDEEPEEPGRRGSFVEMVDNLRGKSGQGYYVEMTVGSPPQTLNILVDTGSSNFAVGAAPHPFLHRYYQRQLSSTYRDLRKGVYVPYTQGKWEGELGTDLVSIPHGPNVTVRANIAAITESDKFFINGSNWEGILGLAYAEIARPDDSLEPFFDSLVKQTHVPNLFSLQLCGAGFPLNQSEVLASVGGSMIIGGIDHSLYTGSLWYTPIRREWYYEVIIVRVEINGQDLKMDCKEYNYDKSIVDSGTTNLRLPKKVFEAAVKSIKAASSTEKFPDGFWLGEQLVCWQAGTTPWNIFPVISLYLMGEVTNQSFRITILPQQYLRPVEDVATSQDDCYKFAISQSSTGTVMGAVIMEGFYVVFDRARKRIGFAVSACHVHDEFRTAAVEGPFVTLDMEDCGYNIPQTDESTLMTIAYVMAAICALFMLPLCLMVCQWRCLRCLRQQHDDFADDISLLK
Chain of BACE2 (Q9Y5Z0 63-473): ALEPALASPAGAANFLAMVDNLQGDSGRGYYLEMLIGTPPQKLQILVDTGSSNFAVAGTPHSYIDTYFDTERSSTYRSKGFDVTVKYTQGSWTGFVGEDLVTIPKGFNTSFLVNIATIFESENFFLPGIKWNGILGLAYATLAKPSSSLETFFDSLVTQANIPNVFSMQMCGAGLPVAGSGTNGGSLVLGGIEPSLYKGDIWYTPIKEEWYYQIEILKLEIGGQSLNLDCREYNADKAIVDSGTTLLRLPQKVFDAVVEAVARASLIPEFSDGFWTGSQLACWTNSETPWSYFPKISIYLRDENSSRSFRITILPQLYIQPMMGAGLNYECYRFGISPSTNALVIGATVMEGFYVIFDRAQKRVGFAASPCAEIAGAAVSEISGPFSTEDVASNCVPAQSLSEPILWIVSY

| SMILES | IC50 (BACE2) [nM] | IC50 (BACE1) [nM] |
| --- | --- | --- |
| C[C@]1(c2cc(N[C@@H]3CCc4cc(Cl)cnc43)ccc2F)N=C(N)COCC1(F)F [Example 9, [3-((R)-3-Amino-6,6-difluoro-5-methyl-2,5,6,7-tetrahydro-[1,4]oxazepin-5-yl)-4-fluoro-phenyl]-((R)-3-chloro-6,7-dihydro-5H-[1]pyrindin-7-yl)-amine] | 650 | 2100 |
| COc1ccc(Nc2ccc(F)c([C@@]3(C)N=C(N)COC(C)(C)C3(F)F)c2)cn1 [Example 25, (R)-6,6-Difluoro-5-[2-fluoro-5-(6-methoxy-pyridin-3-ylamino)-phenyl]-5,7,7-trimethyl-2,5,6,7-tetrahydro-[1,4]oxazepin-3-ylamine] | 1630 | 410 |
| CC1(C)OCC(N)=N[C@](C)(c2cc(NC3CCc4cc(Cl)cnc43)ccc2F)C1(F)F (stereo partly drawn) [Example 14, [3-((R)-3-Amino-6,6-difluoro-5,7,7-trimethyl-2,5,6,7-tetrahydro-[1,4]oxazepin-5-yl)-4-fluoro-phenyl]-(3-chloro-6,7-dihydro-5H-[1]pyrindin-7-yl)-amine] | 28 | 71 |
| Cn1ccc(Nc2ccc(F)c([C@@]3(C)N=C(N)COC(C)(C)C3(F)F)c2)n1 [Example 18, (R)-6,6-Difluoro-5-[2-fluoro-5-(1-methyl-1H-pyrazol-3-ylamino)-phenyl]-5,7,7-trimethyl-2,5,6,7-tetrahydro-[1,4]oxazepin-3-ylamine] | 530 | 240 |
| CC1(C)OCC(N)=N[C@](C)(c2cc(NC3CCCc4cc(C#N)cnc43)ccc2F)C1(F)F (stereo partly drawn) [Example 16, 8-[3-((R)-3-Amino-6,6-difluoro-5,7,7-trimethyl-2,5,6,7-tetrahydro-[1,4]oxazepin-5-yl)-4-fluoro-phenylamino]-5,6,7,8-tetrahydro-quinoline-3-carbonitrile] | 133 | 120 |
| CC[C@]1(c2cc(NCc3nn(C(F)F)cc3Cl)ccc2F)N=C(N)COCC1(F)F [Example 7, (R)-5-{5-[(4-Chloro-1-difluoromethyl-1H-pyrazol-3-ylmethyl)-amino]-2-fluoro-phenyl}-5-ethyl-6,6-difluoro-2,5,6,7-tetrahydro-[1,4]oxazepin-3-ylamine] | 310 | 170 |
| CC1(C)OCC(N)=N[C@](C)(c2cc(Nc3ccc(OCC(F)(F)F)nc3)ccc2F)C1(F)F [Example 28, (R)-6,6-Difluoro-5-{2-fluoro-5-[6-(2,2,2-trifluoro-ethoxy)-pyridin-3-ylamino]-phenyl}-5,7,7-trimethyl-2,5,6,7-tetrahydro-[1,4]oxazepin-3-ylamine] | 1490 | 12700 |
| Cc1ccc(Nc2ccc(F)c([C@@]3(C)N=C(N)COC(C)(C)C3(F)F)c2)cn1 [Example 27, (R)-6,6-Difluoro-5-[2-fluoro-5-(6-methyl-pyridin-3-ylamino)-phenyl]-5,7,7-trimethyl-2,5,6,7-tetrahydro-[1,4]oxazepin-3-ylamine] | – | 5900 |
| CC1(C)OCC(N)=N[C@](C)(c2cc(Nc3cccnc3)ccc2F)C1(F)F [Example 24, (R)-6,6-Difluoro-5-[2-fluoro-5-(pyridin-3-ylamino)-phenyl]-5,7,7-trimethyl-2,5,6,7-tetrahydro-[1,4]oxazepin-3-ylamine] | 940 | 1100 |
| CC1(C)OCC(N)=N[C@](C)(c2cc(Nc3cncc(F)c3)ccc2F)C1(F)F [Example 23, (R)-6,6-Difluoro-5-[2-fluoro-5-(5-fluoro-pyridin-3-ylamino)-phenyl]-5,7,7-trimethyl-2,5,6,7-tetrahydro-[1,4]oxazepin-3-ylamine] | 1360 | 440 |
| CC1(C)OCC(N)=N[C@](C)(c2cc(Nc3ccc(Cl)nc3)ccc2F)C1(F)F [Example 22, (R)-5-[5-(6-Chloro-pyridin-3-ylamino)-2-fluoro-phenyl]-6,6-difluoro-5,7,7-trimethyl-2,5,6,7-tetrahydro-[1,4]oxazepin-3-ylamine] | 1770 | 370 |
| CC1(C)OCC(N)=N[C@](C)(c2cc(N[C@H]3CCc4cc(C#N)cnc43)ccc2F)C1(F)F [Example 12, (S)-7-[3-((R)-3-Amino-6,6-difluoro-5,7,7-trimethyl-2,5,6,7-tetrahydro-[1,4]oxazepin-5-yl)-4-fluoro-phenylamino]-6,7-dihydro-5H-[1]pyrindine-3-carbonitrile] | 5 | 120 |
| C[C@]1(c2cc(NC3CCOC3)ccc2F)N=C(N)COC[C@@H]1F (stereo partly drawn) [Example 3, (5R,6R)-6-Fluoro-5-[2-fluoro-5-(tetrahydro-furan-3-ylamino)-phenyl]-5-methyl-2,5,6,7-tetrahydro-[1,4]oxazepin-3-ylamine] | 72 | 580 |
| CC1(C)OCC(N)=N[C@](C)(c2cc(N[C@H]3CCc4cc(C#N)cnc43)c(F)cc2F)C1(F)F [Example 20, (S)-7-[5-((R)-3-Amino-6,6-difluoro-5,7,7-trimethyl-2,5,6,7-tetrahydro-[1,4]oxazepin-5-yl)-2,4-difluoro-phenylamino]-6,7-dihydro-5H-[1]pyrindine-3-carbonitrile] | 170 | 1900 |
| CC1(C)OCC(N)=N[C@](C)(c2cc(NC3COc4cc(Cl)cnc43)ccc2F)C1(F)F (stereo partly drawn) [Example 15, [3-((R)-3-Amino-6,6-difluoro-5,7,7-trimethyl-2,5,6,7-tetrahydro-[1,4]oxazepin-5-yl)-4-fluoro-phenyl]-(6-chloro-2,3-dihydro-furo[3,2-b]pyridin-3-yl)-amine] | 58 | 40 |
| C[C@]1(c2cc(Nc3ccc(C#N)cc3)ccc2F)N=C(N)COCC1(F)F [Example 10, 4-[3-((R)-3-Amino-6,6-difluoro-5-methyl-2,5,6,7-tetrahydro-[1,4]oxazepin-5-yl)-4-fluoro-phenylamino]-benzonitrile] | 910 | 700 |
| C[C@]1(c2cc(NC3CCOCC3)ccc2F)N=C(N)COC[C@@H]1F [Example 5, (5R,6R)-6-Fluoro-5-[2-fluoro-5-(tetrahydro-pyran-4-ylamino)-phenyl]-5-methyl-2,5,6,7-tetrahydro-[1,4]oxazepin-3-ylamine] | 1480 | 2400 |
| C[C@]1(c2cc(NCc3nn(C(F)F)cc3Cl)ccc2F)N=C(N)COCC1(F)F [Example 6, (R)-5-{5-[(4-Chloro-1-difluoromethyl-1H-pyrazol-3-ylmethyl)-amino]-2-fluoro-phenyl}-6,6-difluoro-5-methyl-2,5,6,7-tetrahydro-[1,4]oxazepin-3-ylamine] | 11 | 30 |
| C[C@]1(c2cc(N[C@H]3CCc4cc(Cl)cnc43)ccc2F)N=C(N)COCC1(F)F [Example 8, [3-((R)-3-Amino-6,6-difluoro-5-methyl-2,5,6,7-tetrahydro-[1,4]oxazepin-5-yl)-4-fluoro-phenyl]-((S)-3-chloro-6,7-dihydro-5H-[1]pyrindin-7-yl)-amine] | 30 | 90 |
| CC1(C)OCC(N)=N[C@](C)(c2cc(NC3COc4cc(Cl)ccc43)ccc2F)C1(F)F (stereo partly drawn) [Example 17, (R)-5-[5-(6-Chloro-2,3-dihydro-benzofuran-3-ylamino)-2-fluoro-phenyl]-6,6-difluoro-5,7,7-trimethyl-2,5,6,7-tetrahydro-[1,4]oxazepin-3-ylamine] | 400 | 320 |
